Test results reported in ChEMBL document CHEMBL3714717, “Family of PFKFB3 inhibitors with anti-neoplastic activities” (2013).
The source made the active and inactive calls.

Assays:
Homo sapiens = organism: Homo sapiens; experiment: Growth inhibition of human CRL11174 cells incubated for 48 hrs by trypan blue dye exclusion assay; assay type: functional
A549 = experiment: Growth inhibition of human A549 cells incubated for 48 hrs by trypan blue dye exclusion assay; assay type: functional, cell-based
K562 = experiment: Growth inhibition of human K562 cells incubated for 48 hrs by trypan blue dye exclusion assay; assay type: functional, cell-based
MDA-MB-231 [1] = experiment: Growth inhibition of human MDA-MB-231 cells incubated for 48 hrs by trypan blue dye exclusion assay; assay type: functional, cell-based
HL-60 [2] = experiment: Growth inhibition of human HL60 cells incubated for 48 hrs by trypan blue dye exclusion assay; assay type: functional, cell-based
U-87MG ATCC = experiment: Antitumor activity against human U87MG cells implanted in C57Bc16 mouse assessed as inhibition of tumor size at 20 mg/kg, ip measured during 7 to 25 days after tumor inoculation; assay type: functional, organism-based
CT26 = experiment: Antitumor activity against mouse CT26 cells implanted in C57Bc16 mouse assessed as inhibition of tumor size at 20 or 23 mg/kg, ip measured during 7 to 22 days after tumor inoculation; assay type: functional, organism-based
NHBE [3] = experiment: Growth inhibition of human NHBE cells immortalized with human telomerase and large-T antigen and transformed with mutated Ras protein at 1 uM incubated for 48 to 72 hrs by trypan blue dye exclusion assay; assay type: functional, cell-based
Jurkat [4] = experiment: Reduction in 2-deoxy-glucose uptake in human Jurkat cells expressing inducible FLAG-tagged PFKFB at 10 uM measured within 4 hrs using [14C]-2-deoxy-glucose by scintillation counting method; assay type: functional, cell-based
HL-60 [5] = experiment: Antitumor activity against human HL60 cells xenografted in Balb/c mouse assessed as tumor growth inhibition at 0.07 mg/g, ip dosed as 2 sequential daily injections followed by 7 consecutive days of without treatment and subsequent second dosing and measured on day9; assay type: functional, organism-based
Jurkat [6] = experiment: Reduction in ATP level in human Jurkat cells expressing inducible FLAG-tagged PFKFB at 10 uM after 24 hrs; assay type: functional, cell-based
Jurkat [7] = experiment: Inhibition of cell proliferation of human Jurkat cells expressing inducible FLAG-tagged PFKFB at 10 uM incubated for 36 hrs by trypan blue dye exclusion assay; assay type: functional, cell-based
Jurkat [8] = experiment: […] cell cycle arrest in human Jurkat cells expressing inducible FLAG-tagged PFKFB assessed as accumulation at G2/M phase by propidium iodide staining based flow cytometry; assay type: functional
Jurkat [9] = experiment: Reduction in Fru-2,6-BP production in human Jurkat cells expressing inducible FLAG-tagged PFKFB at 10 uM measured within 4 hrs; assay type: functional, cell-based
[10] = target: T1, 6-phosphofructo-2-kinase/fructose-2,6-bisphosphatase 3 (Homo sapiens, UniProt Q16875); experiment: Mixed type inhibition of human PFKFB3 expressed in Escherichia coli BL21 (DE3) assessed as reduction in NADH consumption using fructose-6-phosphate incubated for 15 mins by spectrophotometry based pyruvate kinase and LDH enzyme coupled kinetic assay
Jurkat [11] = experiment: Suppression of glycolytic flux into lactate in human Jurkat cells expressing inducible FLAG-tagged PFKFB at 10 uM after 36 hrs by NMR spectroscopy; assay type: functional, cell-based
Jurkat [12] = experiment: Reduction in NADH level in human Jurkat cells expressing inducible FLAG-tagged PFKFB at 10 uM after 16 hrs; assay type: functional, cell-based
Mus musculus [13] = experiment: Reduction in [18F]-2-DG uptake in cardiac tissue of C57B1/6 mouse transplanted with mouse LLC cells at 0.07 mg/g, ip after 30 mins post dose by micro-PET method; assay type: functional, organism-based
[14] = Potency index, ratio of IC50 for 3BrPA to IC50 for test compound for growth inhibition of human NHBE cells immortalized with human telomerase and large-T antigen and transformed with mutated Ras protein at 1 uM incubated for 48 to 72 hrs by trypan blue dye exclusion assay; assay type: functional
Jurkat [15] = experiment: Potency index, ratio of IC50 for growth inhibition of PFKFB3+/+ht/LT/Ras human Jurkat cells to IC50 for growth inhibition of PFKFB3+/-ht/LT/Ras human Jurkat cells; assay type: functional
[16] = Antitumor activity against human HL60 cells xenografted in Balb/c mouse assessed as tumor growth inhibition at 0.07 mg/g, ip dosed as 2 sequential daily injections followed by 7 consecutive days of without treatment; assay type: functional, HL-60
Jurkat [17] = experiment: Reduction in lactate secretion in human Jurkat cells expressing inducible FLAG-tagged PFKFB at 10 uM after 8 hrs by lactate oxidase based colorimetric assay; assay type: functional, cell-based
Jurkat [18] = experiment: Reduction in NAD+ level in human Jurkat cells expressing inducible FLAG-tagged PFKFB at 10 uM after 24 hrs; assay type: functional, cell-based
[19] = Potency index, ratio of IC50 for 2-DG to IC50 for test compound for growth inhibition of human NHBE cells immortalized with human telomerase and large-T antigen and transformed with mutated Ras protein at 1 uM incubated for 48 to 72 hrs by trypan blue dye exclusion assay; assay type: functional
Mus musculus [20] = experiment: Reduction in F2,6BP production excised tumor of C57B1/6 mouse transplanted with mouse LLC cells at 0.07 mg/g, ip after 4 hrs post dose; assay type: functional, organism-based
Jurkat [21] = experiment: Inhibition of cell proliferation of human Jurkat cells expressing inducible FLAG-tagged PFKFB incubated for 48 hrs by trypan blue dye exclusion assay; assay type: functional, cell-based
NHBE [22] = experiment: Growth inhibition of human NHBE cells immortalized with human telomerase and large-T antigen and transformed with mutated Ras protein at 10 uM incubated for 48 to 72 hrs by trypan blue dye exclusion assay; assay type: functional, cell-based
Mus musculus [23] = experiment: Reduction in [18F]-2-DG uptake in tumor of C57B1/6 mouse transplanted with mouse LLC cells at 0.07 mg/g, ip after 30 mins post dose by micro-PET method; assay type: functional, organism-based
Jurkat [24] = experiment: Suppression of glycolytic flux into alanine in human Jurkat cells expressing inducible FLAG-tagged PFKFB at 10 uM after 36 hrs by NMR spectroscopy; assay type: functional, cell-based
MDA-MB-231 [25] = experiment: Antitumor activity against human MDA-MB-231 cells xenografted in Balb/c mouse assessed as tumor growth inhibition at 0.07 mg/g, ip dosed as cyclical regimen of 3 daily injections followed by 3 days of without treatment; assay type: functional
[26] = Growth inhibition of human NHBE cells at 33 uM incubated for 48 to 72 hrs by trypan blue dye exclusion assay; assay type: cell-based
[27] = target: T1, 6-phosphofructo-2-kinase/fructose-2,6-bisphosphatase 3; settings: 150 uM
Description: Inhibition of recombinant PFKFB3 (unknown origin) assessed as reduction in enzyme kinetic rate at 150 uM

Jurkat [28] = experiment: Inhibition of cell proliferation of human Jurkat cells incubated for 72 hrs by Alamar blue assay; assay type: functional, cell-based
[29] = Solubility in Cremophore:EToH:saline solution in normal conditions using Amber vials after 2 hrs by HPLC method (reference value: 1 mg/ml at 0 hrs); assay type: physicochemical
Lewis lung carcinoma = experiment: Antitumor activity against mouse LLC cells implanted in C57Bc16 mouse assessed as inhibition of tumor size at 25 mg/kg, ip dosed on days 1,2 and 3 and 35 mg/kg, ip on days Antitumor activity against mouse LLC cells implanted in C57Bc16 mouse assessed as inhibition of tumor size at 25 mg/kg, ip dosed on days 7,8,9,13,14 and 15; assay type: functional, organism-based
[30] = Solubility in Cremophore:EToH:saline solution in normal conditions using Amber vials after 4 hrs by HPLC method (reference value: 1 mg/ml at 0 hrs); assay type: physicochemical
[31] = Solubility in Cremophore:EToH:saline solution in normal conditions using Amber vials after 8 hrs by HPLC method (reference value: 1 mg/ml at 0 hrs); assay type: physicochemical

T1 sequence (Q16875 whole entry): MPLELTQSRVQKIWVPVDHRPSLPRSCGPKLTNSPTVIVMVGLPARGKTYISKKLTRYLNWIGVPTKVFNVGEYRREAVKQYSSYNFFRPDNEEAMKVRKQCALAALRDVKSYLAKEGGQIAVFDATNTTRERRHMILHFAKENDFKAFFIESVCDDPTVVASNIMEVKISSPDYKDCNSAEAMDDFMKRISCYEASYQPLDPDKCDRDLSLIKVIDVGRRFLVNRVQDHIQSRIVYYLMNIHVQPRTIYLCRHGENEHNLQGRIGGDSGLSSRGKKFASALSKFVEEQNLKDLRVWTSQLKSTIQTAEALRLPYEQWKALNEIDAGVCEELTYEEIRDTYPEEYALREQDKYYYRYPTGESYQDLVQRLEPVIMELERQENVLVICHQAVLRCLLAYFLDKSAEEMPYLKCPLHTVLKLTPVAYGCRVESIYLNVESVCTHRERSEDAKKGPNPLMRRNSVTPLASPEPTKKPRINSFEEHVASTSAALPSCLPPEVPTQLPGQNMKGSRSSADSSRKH

O=C(/C=C/c1ccc(Cl)cc1)c1cccnc1
active: growth inhibition (GI) (Homo sapiens) | growth inhibition (GI) (A549) | growth inhibition (GI) (K562) Dose-dependent effect | growth inhibition (GI) (MDA-MB-231 [1]) | growth inhibition (GI) (HL-60 [2]) Dose-dependent effect

CC(=O)Nc1ccc(/C=C/C(=O)c2ccncc2)cc1
active: growth inhibition (GI) (Homo sapiens) | growth inhibition (GI) (A549) | growth inhibition (GI) (K562) | growth inhibition (GI) (MDA-MB-231 [1]) | growth inhibition (GI) (HL-60 [2])

Cc1cccc2ccc(/C=C/C(=O)c3ccncc3)nc12
active: inhibition (U-87MG ATCC) | inhibition (CT26)

O=C(/C=C/c1cccnc1)c1ccncc1
>75%: TGI [16]
64%: Imax (MDA-MB-231 [25])
25.1 µM: Ki [10]
Non-toxic: Activity [26]
2: Ratio IC50 (Jurkat [15])
10: Ratio IC50 [14] | Ratio IC50 [19]
inactive: Activity (Jurkat [24])
active: growth inhibition (GI) (NHBE [3]) | Activity (Jurkat [4]) | TGI (HL-60 [5]) | Activity (Jurkat [6]) | inhibition (Jurkat [7]) | Activity (Jurkat [8]) | Activity (Jurkat [9]) | Activity (Jurkat [11]) | Activity (Jurkat [12]) | Activity (Mus musculus [13]) | Activity (Jurkat [17]) | Activity (Jurkat [18]) | Activity (Mus musculus [20]) | inhibition (Jurkat [21]) Dose-dependent effect | growth inhibition (GI) (NHBE [22]) | Activity (Mus musculus [23])

O=C(/C=C/c1ccccc1Cl)c1cccnc1
active: growth inhibition (GI) (Homo sapiens) | growth inhibition (GI) (A549) | growth inhibition (GI) (K562) | growth inhibition (GI) (MDA-MB-231 [1]) | growth inhibition (GI) (HL-60 [2])

O=C(/C=C/c1ccc2ccccc2n1)c1cccnc1
active: growth inhibition (GI) (Homo sapiens) | growth inhibition (GI) (A549) | growth inhibition (GI) (K562) | growth inhibition (GI) (MDA-MB-231 [1]) | growth inhibition (GI) (HL-60 [2])
> 80%: inhibition [27]

O=C(/C=C/c1cccc2ccccc12)c1ccncc1
active: growth inhibition (GI) (Homo sapiens) | growth inhibition (GI) (A549) | growth inhibition (GI) (K562) | growth inhibition (GI) (MDA-MB-231 [1]) | growth inhibition (GI) (HL-60 [2])

O=C(/C=C/c1ccccc1Cl)c1ccccn1
active: growth inhibition (GI) (Homo sapiens) | growth inhibition (GI) (A549) | growth inhibition (GI) (K562) | growth inhibition (GI) (MDA-MB-231 [1]) | growth inhibition (GI) (HL-60 [2])

O=C(/C=C/c1cnc2ccccc2c1)c1ccncc1
> 4 µM: IC50 (Jurkat [28])

Cl.O=C(/C=C/c1ccc2cccc(O)c2n1)c1ccncc1
1000 µg/mL: solubility at 2 h [29] | solubility at 4 h [30] | solubility at 8 h [31]
active: inhibition (Lewis lung carcinoma)
